Data published in patent US4206235A, “Novel 2,5-dihalophenyl-β-substituted sulfone fungicides” (priority 1976, dated 1980).
Values after ≈ are worked out from the molar mass of the structure shown. Values joined by “and” are separate entries in the source; they are usually repeats but may differ in a detail not shown here. Equal entries are not always repeated.

What was measured:
two-spotted mite = experiment: Activity against the two-spotted mite
[1] = test system: Fusarium oxysporum sp. f.lycopersici; experiment: Fungitoxicity in culture media (agar), growth inhibition; format: cell-based; details: 50% inhibition of growth, read-out: ED50 (the source's name)
Description: (§1) Acetone solutions of the compound were mixed with an aliquot of distilled water and the fine suspension obtained was mixed with cooled but melted agar medium and poured into Petri dishes.
(§2) The tested fungi were grown on the solidified media. Growth of the fungus was measured and percent inhibition was calculated by comparing with the appropriate acetone-water controls. Media were usually Martin's or potato-dextrose agar media.
(§3) ED50 = effective dose, sufficient for the 50% inhibition of growth of the fungus, expressed in p.p.m.

Sclerotinia rolfsil = experiment: as above; format: cell-based; details: 50% inhibition of growth, read-out: ED50 (the source's name)
Description: as §1, §2, §3

Rhizoctonia solani = experiment: as above; format: cell-based; details: 50% inhibition of growth, read-out: ED50 (the source's name)
Description: as §1, §2, §3

Pythium aphanidermatum = experiment: as above; format: cell-based; details: 50% inhibition of growth, read-out: ED50 (the source's name)
Description: as §1, §2, §3

Rhizoctonia bataticola = experiment: as above; format: cell-based; details: Macrophomina phaseolina, 50% inhibition of growth, read-out: ED50 (the source's name)
Description: as §1, §2, §3

Alternaria tenuis = experiment: Halo test on plasticized PVC sheeting; format: cell-based; design: key to growth under the test sample (GUS): +: no reduction in growth; ±: slight reduction in growth; .-+.: moderate reduction in growth; -: complete reduction in growth; details: for Zone of growth inhibition (halo): brackets = growth partially suppressed
Penicillium funivulosum = experiment: Agar incorporation test; format: cell-based; details: 120 h, 5 days at 28° C., P. funiculosum
Description: The fungal plates were incubated for 5 days at 28° C. The plates were then assessed for either the presence or absence of growth and the minimum inhibitory concentration (MIC) in ppm recorded.

Aspergillus flavus = experiment: Halo test on plasticized PVC sheeting; format: cell-based; design: key to growth under the test sample (GUS): +: no reduction in growth; ±: slight reduction in growth; .-+.: moderate reduction in growth; -: complete reduction in growth
Aspergillus niger [2] = experiment: Halo test on plasticized PVC sheeting; format: cell-based; design: key to growth under the test sample (GUS): +: no reduction in growth; ±: slight reduction in growth; .-+.: moderate reduction in growth; -: complete reduction in growth
[3] = test system: mixed spore suspension of Aspergillus flavus, Aspergillus niger, Paecilomyces varioti, Penicillium funiculosum, Trichoderma viride, Alternaria tenuis …; experiment: Weight Loss Test of PVC sheeting; details: 14 days at 28° C.; for % weight loss: single strip
[4] = test system: Cladosporium cladosporoides; experiment: Halo test on plasticized PVC sheeting; format: cell-based; design: key to growth under the test sample (GUS): +: no reduction in growth; ±: slight reduction in growth; .-+.: moderate reduction in growth; -: complete reduction in growth
Trichoderma viride = experiment: Halo test on plasticized PVC sheeting; format: cell-based; design: key to growth under the test sample (GUS): +: no reduction in growth; ±: slight reduction in growth; .-+.: moderate reduction in growth; -: complete reduction in growth
common moulds = experiment: Activity against common moulds on plasticized PVC sheets; format: cell-based
Penicillium funiculosum = experiment: Halo test on plasticized PVC sheeting; format: cell-based; design: key to growth under the test sample (GUS): +: no reduction in growth; ±: slight reduction in growth; .-+.: moderate reduction in growth; -: complete reduction in growth
Paecilomyces varioti [5] = experiment: Halo test on plasticized PVC sheeting; format: cell-based; design: key to growth under the test sample (GUS): +: no reduction in growth; ±: slight reduction in growth; .-+.: moderate reduction in growth; -: complete reduction in growth
[6] = test system: Cladosporium cladosporides; experiment: Agar incorporation test; format: cell-based; details: 120 h, 5 days at 28° C.
Description: (§4) Pure cultures of fungi Paecilomyces varioti, Cladosporium cladosporides, Penicillium funivulosum, and Aspergillus niger were exposed to a range of dilutions of the compound viz: 10,000, 3,000, 1,000, 600, 300, 100, 30, 10, 1 ppm incorporated into agar via […]. The fungal plates were incubated for 5 days at 28° C. The plates were then assessed for either the presence or absence of growth and the minimum inhibitory concentration (MIC) in ppm recorded.

Aspergillus niger [7] = experiment: Agar incorporation test; format: cell-based; details: 120 h, 5 days at 28° C., A. niger
Description: as §4

Paecilomyces varioti [8] = experiment: Agar incorporation test; format: cell-based; details: 120 h, 5 days at 28° C., P. varioti
Description: as §4

Rhizopus stolonifer = experiment: Fungitoxicity in culture media (agar), growth inhibition; format: cell-based; details: 50% inhibition of growth, read-out: ED50 (the source's name)
Description: as §1, §2, §3

[9] = 0.5% in PVC sheeting, brackets = growth partially suppressed

O=S(=O)(C=C(Cl)Cl)c1cc(Cl)ccc1Cl [Example 4, 2,5-dichlorophenyl-β, β-dichlorovinyl sulfone]
activity against the two-spotted mite (two-spotted mite): strong activity
IC50 [1]: 5 µg/mL (≈ 16.3 µM)
IC50 (Sclerotinia rolfsil): 10 µg/mL (≈ 32.7 µM)
IC50 (Rhizoctonia solani): 5 µg/mL (≈ 16.3 µM)
IC50 (Pythium aphanidermatum): 1 µg/mL (≈ 3.27 µM)
IC50 (Rhizoctonia bataticola): 5 µg/mL (≈ 16.3 µM)

COC(=O)C(Cl)CS(=O)(=O)c1cc(Cl)ccc1Cl (stereo not drawn) [Example 3, 2,5-dichlorophenyl-β-carboxymethyl-β'-chloroethyl sulfone]
growth under the test sample (GUS) (Alternaria tenuis; 0.5% in PVC sheeting): -
Zone of growth inhibition (halo) (Alternaria tenuis; 0.5% in PVC sheeting): 5 millimetres
growth under the test sample (GUS) (Alternaria tenuis; 1% in PVC sheeting): -
Zone of growth inhibition (halo) (Alternaria tenuis; 1% in PVC sheeting): 10 millimetres
MIC (Penicillium funivulosum): 30 µg/mL (≈ 90.5 µM)
Zone of growth inhibition (halo) (Aspergillus flavus; 0.5% in PVC sheeting): 1 millimetres
growth under the test sample (GUS) (Aspergillus flavus; 0.5% in PVC sheeting): .-+.
Zone of growth inhibition (halo) (Aspergillus flavus; 1% in PVC sheeting): 1 millimetres
growth under the test sample (GUS) (Aspergillus flavus; 1% in PVC sheeting): .-+.
growth under the test sample (GUS) (Aspergillus niger [2]; 0.5% in PVC sheeting): -
Zone of growth inhibition (halo) (Aspergillus niger [2]; [9]): 2 millimetres
Zone of growth inhibition (halo) (Aspergillus niger [2]; 1% in PVC sheeting): 6 millimetres
growth under the test sample (GUS) (Aspergillus niger [2]; 1% in PVC sheeting): -
Mean % loss as plasticizer ([3]; 0.5%): 1.8%
Mean % weight loss ([3]; 0.5%): 0.6%
% weight loss ([3]; 0.5%): 0.7% and 0.6% and 0.4% and 0.5%
Mean % loss as plasticizer ([3]; 1.0%): 0.6%
Mean % weight loss ([3]; 1.0%): 0.2%
% weight loss ([3]; 1.0%): 0.4% and 0.1% and 0.01% and 0.2%
growth under the test sample (GUS) ([4]; 0.5% in PVC sheeting): -
Zone of growth inhibition (halo) [4, 9]: 4 millimetres
Zone of growth inhibition (halo) ([4]; 1% in PVC sheeting): 9 millimetres
growth under the test sample (GUS) ([4]; 1% in PVC sheeting): -
Zone of growth inhibition (halo) (Trichoderma viride; 0.5% in PVC sheeting): 2 millimetres
growth under the test sample (GUS) (Trichoderma viride; 0.5% in PVC sheeting): .-+.
Zone of growth inhibition (halo) (Trichoderma viride; 1% in PVC sheeting): 5 millimetres
growth under the test sample (GUS) (Trichoderma viride; 1% in PVC sheeting): .-+.
inhibition of the growth of common moulds on PVC sheets (common moulds; 0.5% by weight, PVC plasticized with 30% dialkyl sebacate): Complete inhibition
inhibition of fungi (common moulds; 0.5% in sheeting, halo test, seven fungi): all fungi were inhibited
inhibition of fungal attack (common moulds; 0.5 and 1.0% in sheeting): virtual complete inhibition of fungal attack
degree of inhibition against the seven fungi (common moulds; 1.0% in sheeting, halo test): good
growth under the test sample (GUS) (Penicillium funiculosum; 0.5% in PVC sheeting): -
Zone of growth inhibition (halo) (Penicillium funiculosum; [9]): 4 millimetres
Zone of growth inhibition (halo) (Penicillium funiculosum; 1% in PVC sheeting): 8 millimetres
growth under the test sample (GUS) (Penicillium funiculosum; 1% in PVC sheeting): -
Zone of growth inhibition (halo) (Paecilomyces varioti [5]; 0.5% in PVC sheeting): 5 millimetres
growth under the test sample (GUS) (Paecilomyces varioti [5]; 0.5% in PVC sheeting): -
Zone of growth inhibition (halo) (Paecilomyces varioti [5]; 1% in PVC sheeting): 10 millimetres
growth under the test sample (GUS) (Paecilomyces varioti [5]; 1% in PVC sheeting): -
MIC [6]: 100 µg/mL (≈ 302 µM)
MIC (Aspergillus niger [7]): 100 µg/mL (≈ 302 µM)
MIC (Paecilomyces varioti [8]): 100 µg/mL (≈ 302 µM)
IC50 [1]: > 50 µg/mL
IC50 (Sclerotinia rolfsil): 50 µg/mL (≈ 151 µM)
IC50 (Rhizoctonia solani): 20 µg/mL (≈ 60.3 µM)
IC50 (Pythium aphanidermatum): > 50 µg/mL
IC50 (Rhizoctonia bataticola): 50 µg/mL (≈ 151 µM)
IC50 (Rhizopus stolonifer): > 50 µg/mL
